# From patent US10675286B2, “Heterocyclic compounds and uses thereof” (Infinity Pharmaceuticals, Inc., priority 2014, dated 2020)
# “Also recorded” adds a separate entry of the source.
# Legend:
# [1] = system: LPS-induced neutrophil influx into BALF; experiment: LPS-induced neutrophilia in rats, oral administration; assay type: in vivo; settings: rat, p.o., 4 hours post-LPS challenge; dose dependent
# Experimental: This study also includes assessment of the exposure to the compounds in plasma and lung tissues.
# Ref C is budesonide p.o. The compound was administered p.o. and about 1 hour later, LPS was administered intra-tracheally and plasma was collected. After about 5 hours, plasma and bronchoalveolar lavage samples were collected.
# [2] = system: T cell activation (IFN-γ in response to ConA); experiment: T cell activation in human whole blood (Con-A, IFN-γ readout); assay type: cell-based; settings: 24 hours, read-out: IC50, T cell activation as measured by inhibition of IFN-γ
# Experimental: The purpose of this study is to evaluate the effect of various antigens (Con-A) in T cell activation in Human Whole Blood vs. 1:1 Diluted Blood using test compounds at 24 hour time-point.
# T-cell Activation Media includes RPMI-1000 ml, MEM NEAA-10 ml, Sodium Pyruvate (100 mM)-10 ml, Pen Strep-10 ml, 2-Mercaptoethanol-1 ml, and FBS-100 ml. 100 ul of whole blood were plated in 96 well plate. Used only the 60 inside wells and filled the outside with media or PBS. Diluted human whole blood with 5% Serum RPMI 1640 1:1 and plate 100 ul in 96 well plate. Used only the 60 inside wells and filled the outside with media or PBS.
# The compound was diluted using DMSO (Sigma hybridmax). For 1000 nM highest concentration starting from a 10 mM stock, added 300 ul of DMSO into deep well plates. To the highest concentration add 10 ul of 10 mM compound stock.
# A media plate was prepared from DMSO plate by taking 100 ul and go into 900 ul media in new deep well plate, taping plate, and putting on mixer for 5 minutes.
# The rested cell plates were removed from incubator. Added 12 uL of diluted compound from media plate (final DMSO is 1%), and incubated for 45 minutes.
# Con-A was prepared as follows: 200 ul stock into 1 ml Media, 100 ul of that into 1 ml Media, 100 ul of that into 1 ml Media. […] This was analyzed after 24 Hours.
# 10× stock in media, added 12 ul per well. […] Analyzed with multiplex elisa from MSD. […]
# [3] = system: T cell proliferation suppressed by CT26 tumor cells; experiment: Ex vivo T cell proliferation (CFSE) with cells of CT26 tumors; assay type: cell-based, mouse; settings: vs tumor cells from vehicle treated mice
# Experimental: CT26 was an N-nitroso-N-methylurethane-(NNMU)induced, undifferentiated colon carcinoma cell line. It was cloned to generate the cell line designated CT26.WT (ATCC CRL-2638).
# The duration of the study was 1 week under treatment. 5-6 week old female, Balb/c mice (Jackson Labs) implanted subcutaneously with 5×10^5CT26 cells in 100 μl PBS. CT26 cells were cultured in RPMI supplemented with 10% FBS. Dosing commenced when tumors reached an average volume of 500-600 mm^3.
# For group 3 (αPD-L1), the mice were dosed once, IP, 200 ug (200 uL from 1 mg/ml stock).
# Mice were monitored daily for adverse clinical effects. Body weights and tumor luminescent were measured two times per week. At the end of the study, tumors were harvested and cut into 3 parts; one piece for CTL killing assay, one piece for CSFE proliferation assay and one piece (split into two) for OCT/FFPE.
# Spleens from 3 vehicle treated tumor bearing mice were physically dissociated in T cell media and passed through a 70 micron filter. After red cell lysis, the cells were pooled, brought up in PBS and stained with CFSE (invitrogen). After washing, these cells were brought up in 20 ml T cell media. Half the cells received Dynal mouse activator beads (CD3/CD28 crosslinking at a 1:1 concentration). CD3/CD28 beads induce proliferation in splenocytes from tumor bearing mouse (data not shown). […]
smiles,measurement,setting,value
C[C@H](NC(=O)c1c(N)nn2cccnc12)c1cc2cccc(C#Cc3cnn(C)c3)c2c(=O)n1-c1ccccc1 [Compound BB],Neutrophil in bronchoalveolar lavage fluid (BALF),[1],reduced neutrophil in bronchoalveolar lavage fluid (BALF); also recorded: more profound effect on neutrophil influx
same,IC50,[2],2500 nM
same,"Inhibition of spleen T cell proliferation by tumor cells of treated mice (FIGS. 55, 56)",[3],less inhibitory of spleen T cell proliferation; also recorded: can release the suppression
